The values that follow come from the Kinase Knowledgebase extract (Sharma et al. 2016).

This assay addresses PIK3CA (human) (UniProt P42336). The experiment in a line: Assessment of PIK3CA Kinase Activity.

PIK3CA (human), sequence (P42336 whole entry, looked up): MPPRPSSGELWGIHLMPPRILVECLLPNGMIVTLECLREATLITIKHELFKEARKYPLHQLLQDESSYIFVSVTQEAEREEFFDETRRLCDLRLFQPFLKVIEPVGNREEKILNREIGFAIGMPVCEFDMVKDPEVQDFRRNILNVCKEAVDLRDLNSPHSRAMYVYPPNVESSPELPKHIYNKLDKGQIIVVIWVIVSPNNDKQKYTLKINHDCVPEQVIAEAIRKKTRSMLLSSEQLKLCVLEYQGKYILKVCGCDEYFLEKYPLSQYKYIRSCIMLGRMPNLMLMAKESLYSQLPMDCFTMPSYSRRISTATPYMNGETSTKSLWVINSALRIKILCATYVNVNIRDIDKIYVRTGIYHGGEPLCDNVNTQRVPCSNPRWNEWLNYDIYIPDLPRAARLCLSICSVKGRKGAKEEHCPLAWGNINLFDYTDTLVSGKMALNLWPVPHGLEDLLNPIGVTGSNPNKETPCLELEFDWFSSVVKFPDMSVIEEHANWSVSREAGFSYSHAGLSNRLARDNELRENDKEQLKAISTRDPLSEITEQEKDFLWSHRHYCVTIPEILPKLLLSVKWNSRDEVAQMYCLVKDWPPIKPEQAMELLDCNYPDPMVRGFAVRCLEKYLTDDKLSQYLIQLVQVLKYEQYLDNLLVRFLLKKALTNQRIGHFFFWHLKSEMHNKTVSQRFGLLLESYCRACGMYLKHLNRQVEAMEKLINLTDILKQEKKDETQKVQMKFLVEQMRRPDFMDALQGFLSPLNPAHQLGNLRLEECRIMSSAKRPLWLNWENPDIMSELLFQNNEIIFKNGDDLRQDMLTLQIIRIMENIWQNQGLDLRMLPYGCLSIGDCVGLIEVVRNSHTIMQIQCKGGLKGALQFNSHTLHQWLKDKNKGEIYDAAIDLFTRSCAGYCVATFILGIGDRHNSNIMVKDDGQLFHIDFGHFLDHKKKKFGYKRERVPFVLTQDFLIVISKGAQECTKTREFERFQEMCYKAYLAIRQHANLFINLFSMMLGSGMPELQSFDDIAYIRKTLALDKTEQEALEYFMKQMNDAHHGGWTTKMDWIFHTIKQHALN

What is called IC50 is the concentration that inhibits the measured activity by half. Regarding `CC1(C)CCc2nc(N)nc(N3CCOc4ccc(-c5ccc6[nH]cnc6c5)cc4C3)c2C1`, the half-maximal inhibitory concentration (IC50) was ≤ 100 nM.
In the case of `Cc1nc2cc(-c3ccc4c(c3)CN(c3nc(CN(C)C)nc(C)c3CCCF)CCO4)ccc2[nH]1`, the IC50 is ≤ 100 nM.
The same measure for `C=CCc1c(C)nc(CN(C)C)nc1N1CCOc2ccc(-c3ccc4nc(C)[nH]c4c3)cc2C1`: ≤ 100 nM; for `CCNc1nc(C)c(Cc2ccc(F)cc2)c(N2CCOc3ccc(-c4ccc5[nH]c(C)nc5c4)cc3C2)n1`: 100 to 500 nM; for `COC(=O)Cc1c(C)nc(CN(C)C)nc1N1CCOc2ccc(-c3ccc4nc(C)[nH]c4c3)cc2C1`: ≤ 100 nM.
The same measure for `Cc1nc2cc(-c3ccc4c(c3)CN(c3nc(CN(C)C)nc(C)c3-c3ccccc3)CCO4)ccc2[nH]1`: 100 to 500 nM; for `Cc1nc(N)nc(N2CCOc3ccc(-c4cnc5[nH]cnc5c4)cc3C2)c1C(C)C`: ≤ 100 nM; for `COc1ccc(-c2ccc3c(c2)CN(c2nc(N)nc(C)c2C(C)C)CCO3)cc1NS(C)(=O)=O`: 100 to 500 nM.
Turning to `Cc1nc2cc(-c3ccc4c(c3)CN(c3nc(N)nc(C)c3Cc3ccc(F)cc3)CCO4)ccc2[nH]1`, the IC50 was ≤ 100 nM.
As for `CC(=O)OCc1nc(C)c(C(C)C)c(N2CCOc3ccc(-c4ccc5nc(C)[nH]c5c4)cc3C2)n1`, the IC50 was ≤ 100 nM.
The same measure for `Cc1nc2cc(-c3ccc4c(c3)CN(c3cc(N)ncc3C#N)CCO4)ccc2[nH]1`: ≤ 100 nM; for `COCCOc1cc(-c2ccc3c(c2)CN(c2nc(CN(C)C)nc4c2CC(C)(C)CC4)CCO3)ccc1OC`: ≤ 100 nM; for `Cc1nc2ccc(-c3ccc4c(c3)CN(c3nc(CN(C)C)nc(C)c3C)CCO4)cc2[nH]1`: ≤ 100 nM.
In the case of `Cc1nc2cc(-c3ccc4c(c3)CN(c3nc(CN(C)C)nc(C)c3CC(C)C)CCO4)ccc2[nH]1`, the IC50 lay within 100 to 500 nM.
To `Cc1nc2cc(-c3ccc4c(c3)CN(c3nc(CF)nc5c3CC(C)(C)CC5)CCO4)ccc2[nH]1` belongs ≤ 100 nM.
Regarding `Cc1nc2cc(-c3ccc4c(c3)CN(c3nc(N)nc(C)c3C(C)C)CCO4)ccc2[nH]1`, the IC50 is ≤ 100 nM.
The same measure for `Cc1nc2cc(-c3ccc4c(c3)CN(c3nc(N)nc(C)c3Cc3ccc(F)cc3)CCO4)cnc2[nH]1`: ≤ 100 nM; for `Cc1nc2cc(-c3ccc4c(c3)CN(c3nc(CN(C)C)nc(C)c3Cl)CCO4)ccc2[nH]1`: 100 to 500 nM; for `Cc1nc(N)nc(N2CCOc3ccc(-c4cnc5[nH]cnc5c4)cc3C2)c1Cc1ccc(F)cc1`: ≤ 100 nM.
`COc1ccc(-c2ccc3c(c2)CN(c2nc(CN(C)C)nc4c2CC(C)(C)CC4)CCO3)cc1C(C)=O` came in with an IC50 of 100 to 500 nM.
To `Cc1nc2cc(-c3ccc4c(c3)CN(c3nc(C(C)N)nc5c3CC(C)(C)CC5)CCO4)ccc2[nH]1` (stereo not given) belongs ≤ 100 nM; to `Cc1nc2cc(-c3ccc4c(c3)CN(c3nc(N)nc5c3CC(C)(C)CC5)CCO4)ccc2[nH]1`, ≤ 100 nM.
With `CCN(CC)Cc1nc(C)c(C(C)C)c(N2CCOc3ccc(-c4ccc5nc(C)[nH]c5c4)cc3C2)n1`, the half-inhibitory concentration (IC50) is ≤ 100 nM.
The same measure for `Cc1nc2ccc(-c3ccc4c(c3)CN(c3nc(CO)nc(C)c3C(C)C)CCO4)cc2[nH]1`: ≤ 100 nM.
The same measure for `Cc1nc2cc(-c3ccc4c(c3)CN(c3nc(N)nc(C)c3C(C)C)CCO4)cnc2[nH]1`: ≤ 100 nM; for `CC1(C)CCc2nc(N)nc(N3CCOc4ccc(-c5cnc6[nH]cnc6c5)cc4C3)c2C1`: ≤ 100 nM.
Take `Cc1nc2ncc(-c3ccc4c(c3)CN(c3nc(N)nc5c3CC(C)(C)CC5)CCO4)cc2[nH]1`: the IC50 was ≤ 100 nM.
The same measure for `C=CCc1c(C)nc(N)nc1N1CCOc2ccc(-c3ccc4nc(C)[nH]c4c3)cc2C1`: ≤ 100 nM.
`Cc1nc(N)nc(N2CCOc3ccc(-c4ccc5[nH]cnc5c4)cc3C2)c1Cc1ccc(F)cc1`: the concentration for half-maximal inhibition (IC50) is ≤ 100 nM.
Consider `Cc1nc2cc(-c3ccc4c(c3)CN(c3nc(CNCCF)nc(C)c3C(C)C)CCO4)ccc2[nH]1`, for which the IC50 is ≤ 100 nM.
To `Cc1nc(N)nc(N2CCOc3ccc(-c4cnc5[nH]c(N)nc5c4)cc3C2)c1C(C)C` belongs ≤ 100 nM; to `Cc1nc2cc(-c3ccc4c(c3)CN(c3nc(NCCCN(C)C)nc(C)c3Cc3ccc(F)cc3)CCO4)ccc2[nH]1`, 100 to 500 nM; to `COc1ccc2c(N3CCOc4ccc(-c5cnc6[nH]cnc6c5)cc4C3)nc(CN(C)C)nc2c1`, ≤ 100 nM.
The same measure for `Cc1nc2cc(-c3ccc4c(c3)CN(c3nc(CN(C)C)nc(C)c3Br)CCO4)ccc2[nH]1`: ≤ 100 nM; for `Cc1nc2cc(-c3ccc4c(c3)CN(c3nc(NC5CNC5)nc(C)c3Cc3ccc(F)cc3)CCO4)ccc2[nH]1`: ≤ 100 nM.
To `Cc1nc(N)nc(N2CCOc3ccc(-c4ccc5[nH]cnc5c4)cc3C2)c1C(C)C` belongs ≤ 100 nM; to `Cc1nc2cc(-c3ccc4c(c3)CN(c3nc(NCCN(C)C)nc(C)c3Cc3ccc(F)cc3)CCO4)ccc2[nH]1`, ≤ 100 nM.
As to `COc1ccc(-c2ccc3c(c2)CN(c2nc(CN(C)C)nc4c2CC(C)(C)CC4)CCO3)cc1S(C)(=O)=O`, the IC50 was ≤ 100 nM.
On to `COc1ccc2c(N3CCOc4ccc(-c5ccc6[nH]cnc6c5)cc4C3)nc(CN(C)C)nc2c1`, for which the IC50 is ≤ 100 nM.
Consider `COc1ccc2c(N3CCOc4ccc(-c5ccc6[nH]c(C)nc6c5)cc4C3)nc(CN(C)C)nc2c1`, for which the IC50 was ≤ 100 nM.
Regarding `CC(=O)NCc1nc2c(c(N3CCOc4ccc(-c5ccc6[nH]c(C)nc6c5)cc4C3)n1)CC(C)(C)CC2`, the IC50 is ≤ 100 nM.
To `CCCc1c(C)nc(CN(C)C)nc1N1CCOc2ccc(-c3ccc4nc(C)[nH]c4c3)cc2C1` belongs ≤ 100 nM; to `Cc1nc2ccc(-c3cc(F)c4c(c3)CN(c3nc(N)nc(C)c3C(C)C)CCO4)cc2[nH]1`, ≤ 100 nM.
The same measure for `Cc1nc2cc(-c3ccc4c(c3)CN(c3nc(NC5CNC5)nc(C)c3C(C)C)CCO4)ccc2[nH]1`: ≤ 100 nM; for `COC(=O)Nc1nc2cc(-c3ccc4c(c3)CN(c3nc(N)nc(C)c3C(C)C)CCO4)ccc2[nH]1`: ≤ 100 nM; for `COCCc1c(C)nc(CN(C)C)nc1N1CCOc2ccc(-c3ccc4nc(C)[nH]c4c3)cc2C1`: ≤ 100 nM.
`COc1ccc(-c2ccc3c(c2)CN(c2nc(CN(C)C)nc(C)c2C(C)C)CCO3)cc1NS(C)(=O)=O`: the half-inhibitory concentration (IC50) was ≤ 100 nM.
In the case of `CCNc1nc2cc(-c3ccc4c(c3)CN(c3nc(N)nc(C)c3C(C)C)CCO4)ccc2[nH]1`, the IC50 was ≤ 100 nM.
To `Cc1nc2cc(-c3ccc4c(c3)CN(c3nc(CN5CCCC5)nc(C)c3C(C)C)CCO4)ccc2[nH]1` belongs ≤ 100 nM; to `COc1ccc(-c2ccc3c(c2)CN(c2nc(CN(C)C)nc4c2CC(C)(C)CC4)CCO3)cc1OC(F)F`, ≤ 100 nM.
